Assay results: US11220479B2, “Glucosylceramide synthase inhibitors and therapeutic methods using the same” (THE REGENTS OF THE UNIVERSITY OF MICHIGAN, priority 2019, dated 2022)
pIC50: −log10 of the molar value. Read-outs that look alike come from different tables or passages of the source.

Tests used:
[1] = target: T1, glucosylceramide synthase (GCS) (Canis lupus familiaris, UniProt A0A8I3MXG6); assay: GCS inhibition in MDCKII cells (inhibition of GlcCer production in whole wild-type MDCKII cells); format: cell-based; details: read-out: MDCK IC50
T1 construct: endogenous in cells; host or cells: parental (wild-type) MDCKII cells
T1 sequence (A0A8I3MXG6 1-394): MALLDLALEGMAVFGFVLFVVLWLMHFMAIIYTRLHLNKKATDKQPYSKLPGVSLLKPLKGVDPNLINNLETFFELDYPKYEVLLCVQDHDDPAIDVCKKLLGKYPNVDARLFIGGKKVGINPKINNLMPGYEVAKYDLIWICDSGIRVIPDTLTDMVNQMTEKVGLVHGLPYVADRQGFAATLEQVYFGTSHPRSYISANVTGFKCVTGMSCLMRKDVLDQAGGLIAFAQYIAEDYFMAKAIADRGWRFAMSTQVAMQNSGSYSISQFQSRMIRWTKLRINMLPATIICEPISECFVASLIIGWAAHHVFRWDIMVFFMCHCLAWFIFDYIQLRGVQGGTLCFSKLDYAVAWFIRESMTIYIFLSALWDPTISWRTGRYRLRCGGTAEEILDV
Procedure: GCS Inhibition in MDCKII Cells
Parental (WT-)MDCKII cells were routinely maintained in medium consisting of Opti-MEM/F12 (1:1), 5% FBS, 100 U/mL of penicillin, 100 μg/mL streptomycin and 200 mM L-glutamine. MDCKII cells were newly thawed from frozen ampules every two months.
The inhibitor-ethanol solutions then were diluted 50× into 2 mM delipidated bovine serum albumin-phosphate buffered saline solution to make water-soluble glycosphingolipid inhibitor-bovine serum albumin complexes. The inhibitor-bovine serum album complexes were sterile-filtered and stored at −20° C. Prior to use, portions of the inhibitor-bovine serum albumin complexes were further diluted with Opti-F12 to make treatment solutions. Equal amounts of bovine serum albumin and ethanol were added into the control cultures. Cells (5×10^5) were seeded into 10-cm culture dishes containing 10 ml of Opti-F12 with 5% FBS. After 24 hours, the medium was replaced with fresh serum-free Opti-F12 medium, and cells were exposed to candidate GCS inhibitors at concentrations of 0, 1, 3, 10, 30, 100 and 300 nM for 24 hours.
Briefly, cells were washed with ice-cold phosphate buffered saline, fixed by methanol, and collected with rubber scraper. Chloroform was then added to yield a theoretical ratio of chloroform:methanol:water at 1:2:0.8 (v/v/v) to form a mono-phase. Cell debris and proteins were removed by centrifugation at 2200×g for 30 min. The supernatants were portioned by adding chloroform and 0.9% NaCl. […] A portion of purified glycosphingolipids normalized to 100 nmol of total phospholipids was analyzed by high performance thin layer chromatography. The thin layer chromatography separations were processed twice. The plate pretreated with 1% sodium borate was first developed in a solvent system consisting of chloroform/methanol (98/2, v/v). After air drying, the plate was then developed in a solvent system containing chloroform/methanol/water (70/30/4, v/v/v). The levels of glucosylceramide were detected by charring with 8% cupric sulfate in 8% phosphoric acid, and quantified by densitometric scanning using ImageJ, NIH Image.

[2] = Half-life when incubated with mouse liver microsomes (MLM); format: in vitro ADME; details: read-out: MLM T½
Procedure: ^a Inhibition of GlcCer production in whole wild-type MDCKII cells. ^bHalf-life when incubated with mouse liver microsomes. ^cAreas under the drug concentration curve after single IP dose in mice (10 mg/kg). ^dReduction in brain levels of glucosylceramide in CBE mice after 14 days of qd dosing with test drug administered IP. NC=no change.

[3] = IP PK: areas under the drug concentration curve after single IP dose in mice; format: in vivo; details: mice, single IP dose 10 mg/kg; for AUC: mouse, plasma
[4] = inhibition of GlcCer production in whole wild-type MDCKII cells, 24 hours
[5] = half-life when incubated with mouse liver microsomes
[6] = mouse, liver microsomes, Table 2, Cl vs H comparison

O=C(CC1Cc2ccccc2C1)N[C@H](CN1CCCC1)[C@H](O)c1cc(Cl)cc(OC2CC2)c1 [Example 20, N-((1R,2R)-1-(3-chloro-5-cyclopropoxyphenyl)-1-hydroxy-3-(pyrrolidin-1-yl)propan-2-yl)-2-(2,3-dihydro-1H-inden-2-yl)acetamide] gave a pIC50 [1, 4] of 8.68 and a half-life [2, 5] of 6.5 min.
For O=C(N[C@H](CN1CCCC1)[C@H](O)c1cccc(Cl)c1)OC1Cc2ccccc2C1 [Example 6, 2,3-dihydro-1H-inden-2-yl ((1R,2R)-1-(3-chlorophenyl)-1-hydroxy-3-(pyrrolidin-1-yl)propan-2-yl)carbamate], the pIC50 [1, 4] was 8.42, the half-life [2, 5] was 18 min and the “IP PK Brain AUC” value [3] was 997 ng·h/mL. The AUC [3] was 401 ng·h/mL.
With O=C(CC1Cc2ccccc2C1)N[C@H](CN1CCCC1)[C@H](O)c1ccc(OC(F)F)cc1 [Comp. Ex. 9, reference compound] the half-life [2, 6] was 38 min.
In the case of O=C(CC1Cc2ccccc2C1)N[C@H](CN1CCCC1)[C@H](O)c1ccc(OC2CC2)cc1 [Comp. Ex. 4, reference compound], the pIC50 ([1]; Table 2, Cl vs H comparison) was 8.77 and the half-life [2, 6] was 3.8 min.
Compound O=C(CC1Cc2ccccc2C1)N[C@H](CN1CCCC1)[C@H](O)c1cccc(Cl)c1F [Example 22, N-((1R,2R)-1-(3-chloro-2-fluorophenyl)-1-hydroxy-3-(pyrrolidin-1-yl)propan-2-yl)-2-(2,3-dihydro-1H-inden-2-yl)acetamide] has a pIC50 [1, 4] of 6.85 and a half-life [2, 5] of 4.6 min.
For COc1ccc(Cl)cc1[C@@H](O)[C@@H](CN1CCCC1)NC(=O)CC1Cc2ccccc2C1 [Example 19, N-((1R,2R)-1-(5-chloro-2-methoxyphenyl)-1-hydroxy-3-(pyrrolidin-1-yl)propan-2-yl)-2-(2,3-dihydro-1H-inden-2-yl)acetamide], the pIC50 [1, 4] was 9.37 and the half-life [2, 5] was 7.1 min.
With O=C(CC1Cc2ccccc2C1)N[C@H](CN1CCCC1)[C@H](O)c1ccc(OC(F)(F)F)cc1 [Comp. Ex. 3, reference compound] the half-life [2, 6] was 251 min.
For CC1(C)COc2cc([C@@H](O)[C@@H](CN3CCCC3)NC(=O)CC3Cc4ccccc4C3)ccc2O1 [Comp. Ex. 7, reference compound], the pIC50 ([1]; Table 2, Cl vs H comparison) was 9.00 and the half-life [2, 6] was 29 min.
With O=C(CC1Cc2ccccc2C1)N[C@H](CN1CC[C@@H](F)C1)[C@H](O)c1cccc(Cl)c1 [Example 10, N-((1R,2R)-1-(3-chlorophenyl)-3-((R)-3-fluoropyrrolidin-1-yl)-1-hyroxypropan-2-yl)-2-(2,3-dihydro-1H-inden-2-yl)acetamide] the pIC50 [1, 4] was 8.06, the half-life [2, 5] was 12 min and the “IP PK Brain AUC” value [3] was 940 ng·h/mL. The AUC [3] was 289 ng·h/mL.
For O=C(CC1Cc2ccccc2C1)N[C@H](CN1CCC1)[C@H](O)c1cccc(Cl)c1 [Example 16, N-((1R,2R)-3-(azetidin-1-yl)-1-(3-chlorophenyl)-1-hydroxypropan-2-yl)-2-(2,3-dihydro-1H-inden-2-yl)acetamide], the pIC50 [1, 4] was 8.17 and the half-life [2, 5] was 54 min.
In the case of O=C(N[C@H](CN1CC[C@@H](F)C1)[C@H](O)c1cccc(Cl)c1)OC1Cc2ccccc2C1.O=C(O)C(=O)O [Example 15, 2,3-dihydro-1H-inden-2-yl ((1R,2R)-1-(3-chlorophenyl)-3-((R)-3-fluoropyrrolidin-1-yl)-1-hydroxypropan-2-yl)carbamate oxalate], the pIC50 [1, 4] was 7.71, the half-life [2, 5] was 0.8 min and the “IP PK Brain AUC” value [3] was 2656 ng·h/mL. For the same compound, the AUC [3] was 913 ng·h/mL.
In the case of [2H]C([2H])([2H])N(C(=O)CC1Cc2ccccc2C1)[C@H](CN1CCCC1)[C@H](O)c1cccc(Cl)c1 [Example 17, N-((1R,2R)-1-(3-chlorophenyl)-1-hydroxy-3-(pyrrolidin-1-yl)propan-2-yl)-2-(2,3-dihydro-1H-inden-2-yl)-N-(methyl-d3)acetamide], the pIC50 [1, 4] was 7.96, the half-life [2, 5] was 15 min and the “IP PK Brain AUC” value [3] was 742 ng·h/mL. For the same compound, the AUC [3] was 366 ng·h/mL.
Compound O=C(CC1Cc2ccccc2C1)N[C@H](CN1CCCC1)[C@H](O)c1ccccc1 [Comp Ex. 1, reference compound] has a pIC50 ([1]; Table 2, Cl vs H comparison) of 8.19 and a half-life [2, 6] of 15 min.
Work on CC1(OC(=O)N[C@H](CN2CCCC2)[C@H](O)c2cccc(Cl)c2)Cc2ccccc2C1 [Example 14, 2-methyl-2,3-dihydro-1H-inden-2-yl ((1R,2R)-1-(3-chlorophenyl)-1-hydroxy-3-(pyrrolidin-1-yl)propan-2-yl)carbamate] yielded a pIC50 [1, 4] of 8.04 and an AUC [3] of 324 ng·h/mL.
With O=C(CC1Cc2ccccc2C1)N[C@H](CN1CCCC1)[C@H](O)c1cc(Cl)ccc1F [Example 23, N-((1R,2R)-1-(5-chloro-2-fluorophenyl)-1-hydroxy-3-(pyrrolidin-1-yl)propan-2-yl)-2-(2,3-dihydro-1H-inden-2-yl)acetamide] the pIC50 [1, 4] was 9.77, the half-life [2, 5] was 24 min and the “IP PK Brain AUC” value [3] was “BLQ”. The AUC [3] was 644 ng·h/mL.
For COc1c(Cl)cccc1[C@@H](O)[C@@H](CN1CCCC1)NC(=O)CC1Cc2ccccc2C1 [Example 18, N-((1R,2R)-1-(3-chloro-2-methoxyphenyl)-1-hydroxy-3-(pyrrolidin-1-yl)propan-2-yl)-2-(2,3-dihydro-1H-inden-2-yl)acetamide], the pIC50 [1, 4] was 7.09.
Compound COc1ccccc1[C@@H](O)[C@@H](CN1CCCC1)NC(=O)CC1Cc2ccccc2C1 [Comp. Ex. 19, reference compound] has a pIC50 ([1]; Table 2, Cl vs H comparison) of 8.32.
For O=C(CC1Cc2ccccc2C1)N[C@H](CN1CCCC1)[C@H](O)c1ccc(OC(F)F)c(Cl)c1 [Example 13, N-((1R,2R)-1-(3-chloro-4-(difluoromethoxy)phenyl)-1-hydroxy-3-(pyrrolidin-1-yl)propan-2-yl)-2-(2,3-dihydro-1H-inden-2-yl)acetamide], the pIC50 [1, 4] was 9.15, the half-life [2, 5] was 187 min and the “IP PK Brain AUC” value [3] was 216 ng·h/mL. The AUC [3] was 535 ng·h/mL.
Work on CC(C)(C)c1ccc([C@@H](O)[C@@H](CN2CCCC2)NC(=O)CC2Cc3ccccc3C2)cc1Cl [Example 21, N-((1R,2R)-1-(4-(tert-butyl)-3-chlorophenyl)-1-hydroxy-3-(pyrrolidin-1-yl)propan-2-yl)-2-(2,3-dihydro-1H-inden-2-yl)acetamide] yielded a pIC50 [1, 4] of 7.62 and a half-life [2, 5] greater than 1000 min.
O=C(CC1Cc2ccccc2C1)N[C@H](CN1CCCC1)[C@H](O)c1ccc(C2CC2)cc1 [Comp. Ex. 8, reference compound] gave a pIC50 ([1]; Table 2, Cl vs H comparison) of 8.41 and a half-life [2, 6] of 56 min.
With CC1(Oc2ccc([C@@H](O)[C@@H](CN3CCCC3)NC(=O)CC3Cc4ccccc4C3)cc2)COC1 [Comp. Ex. 5, reference compound] the pIC50 ([1]; Table 2, Cl vs H comparison) was 8.10 and the half-life [2, 6] was 24 min.
With O=C(CC1Cc2ccccc2C1)N[C@H](CN1CCCC1)[C@H](O)c1ccc(C2CC2)c(Cl)c1 [Example 8, N-((1R,2R)-1-(3-chloro-4-cyclopropylphenyl)-1-hydroxy-3-(pyrrolidin-1-yl)propan-2-yl)-2-(2,3-dihydro-1H-inden-2-yl)acetamide] the pIC50 [1, 4] was 9.27 and the half-life [2, 5] was 91 min.
With O=C(CC1Cc2ccccc2C1)N[C@H](CN1CCCC1)[C@H](O)c1ccc(OC(F)(F)F)c(Cl)c1 [Example 3, N-((1R,2R)-1-(3-chloro-4-(trifluoromethoxy)phenyl)-1-hydroxy-3-(pyrrolidin-1-yl)propan-2-yl)-2-(2,3-dihydro-1H-inden-2-yl)acetamide] the pIC50 [1, 4] was 8.39 and the half-life [2, 5] was 316 min.
Work on CC(C)(C)Oc1ccc([C@@H](O)[C@@H](CN2CCCC2)NC(=O)CC2Cc3ccccc3C2)cc1 [Comp. Ex. 2, reference compound] yielded a pIC50 ([1]; Table 2, Cl vs H comparison) of 8.60 and a half-life [2, 6] of 120 min.
